According to patent US12187742B2 (XRAD Therapeutics, Inc., priority 2018, dated 2025):
pIC50: −log10 of the molar value. Where a name gives a salt, the structure may show the parent alone.

Key:
[1] = target: DNA-PK (Homo sapiens (Human), UniProt P78527); test: DNA-PK Enzyme-Linked Immunosorbent Assay (phosphorylation of GST-p53 (1-101) peptide); type: biochemical; conditions: ELISA, ATP 20 μM
Procedure, shortened: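 Inhibition measured by 450 nm absorbance after HRP/TMB detection of phospho-Ser15 on immobilized GST-p53 (1-101). The kinase reaction used 0.1 μg/mL DNA-PK and 20 μM ATP, 1 h at 25 °C. Ten 3-fold compound dilutions, top final concentration 100 nM.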

[2] = target: ATM (Homo sapiens (Human), UniProt Q13315); test: ATM in Cell Western Assay (pKAP1 in etoposide-treated MCF-7 cells); type: cell-based; conditions: MCF-7 cells, etoposide 100 μM, 1 hr, pKAP1 readout
Chain of ATM (Q13315 whole entry): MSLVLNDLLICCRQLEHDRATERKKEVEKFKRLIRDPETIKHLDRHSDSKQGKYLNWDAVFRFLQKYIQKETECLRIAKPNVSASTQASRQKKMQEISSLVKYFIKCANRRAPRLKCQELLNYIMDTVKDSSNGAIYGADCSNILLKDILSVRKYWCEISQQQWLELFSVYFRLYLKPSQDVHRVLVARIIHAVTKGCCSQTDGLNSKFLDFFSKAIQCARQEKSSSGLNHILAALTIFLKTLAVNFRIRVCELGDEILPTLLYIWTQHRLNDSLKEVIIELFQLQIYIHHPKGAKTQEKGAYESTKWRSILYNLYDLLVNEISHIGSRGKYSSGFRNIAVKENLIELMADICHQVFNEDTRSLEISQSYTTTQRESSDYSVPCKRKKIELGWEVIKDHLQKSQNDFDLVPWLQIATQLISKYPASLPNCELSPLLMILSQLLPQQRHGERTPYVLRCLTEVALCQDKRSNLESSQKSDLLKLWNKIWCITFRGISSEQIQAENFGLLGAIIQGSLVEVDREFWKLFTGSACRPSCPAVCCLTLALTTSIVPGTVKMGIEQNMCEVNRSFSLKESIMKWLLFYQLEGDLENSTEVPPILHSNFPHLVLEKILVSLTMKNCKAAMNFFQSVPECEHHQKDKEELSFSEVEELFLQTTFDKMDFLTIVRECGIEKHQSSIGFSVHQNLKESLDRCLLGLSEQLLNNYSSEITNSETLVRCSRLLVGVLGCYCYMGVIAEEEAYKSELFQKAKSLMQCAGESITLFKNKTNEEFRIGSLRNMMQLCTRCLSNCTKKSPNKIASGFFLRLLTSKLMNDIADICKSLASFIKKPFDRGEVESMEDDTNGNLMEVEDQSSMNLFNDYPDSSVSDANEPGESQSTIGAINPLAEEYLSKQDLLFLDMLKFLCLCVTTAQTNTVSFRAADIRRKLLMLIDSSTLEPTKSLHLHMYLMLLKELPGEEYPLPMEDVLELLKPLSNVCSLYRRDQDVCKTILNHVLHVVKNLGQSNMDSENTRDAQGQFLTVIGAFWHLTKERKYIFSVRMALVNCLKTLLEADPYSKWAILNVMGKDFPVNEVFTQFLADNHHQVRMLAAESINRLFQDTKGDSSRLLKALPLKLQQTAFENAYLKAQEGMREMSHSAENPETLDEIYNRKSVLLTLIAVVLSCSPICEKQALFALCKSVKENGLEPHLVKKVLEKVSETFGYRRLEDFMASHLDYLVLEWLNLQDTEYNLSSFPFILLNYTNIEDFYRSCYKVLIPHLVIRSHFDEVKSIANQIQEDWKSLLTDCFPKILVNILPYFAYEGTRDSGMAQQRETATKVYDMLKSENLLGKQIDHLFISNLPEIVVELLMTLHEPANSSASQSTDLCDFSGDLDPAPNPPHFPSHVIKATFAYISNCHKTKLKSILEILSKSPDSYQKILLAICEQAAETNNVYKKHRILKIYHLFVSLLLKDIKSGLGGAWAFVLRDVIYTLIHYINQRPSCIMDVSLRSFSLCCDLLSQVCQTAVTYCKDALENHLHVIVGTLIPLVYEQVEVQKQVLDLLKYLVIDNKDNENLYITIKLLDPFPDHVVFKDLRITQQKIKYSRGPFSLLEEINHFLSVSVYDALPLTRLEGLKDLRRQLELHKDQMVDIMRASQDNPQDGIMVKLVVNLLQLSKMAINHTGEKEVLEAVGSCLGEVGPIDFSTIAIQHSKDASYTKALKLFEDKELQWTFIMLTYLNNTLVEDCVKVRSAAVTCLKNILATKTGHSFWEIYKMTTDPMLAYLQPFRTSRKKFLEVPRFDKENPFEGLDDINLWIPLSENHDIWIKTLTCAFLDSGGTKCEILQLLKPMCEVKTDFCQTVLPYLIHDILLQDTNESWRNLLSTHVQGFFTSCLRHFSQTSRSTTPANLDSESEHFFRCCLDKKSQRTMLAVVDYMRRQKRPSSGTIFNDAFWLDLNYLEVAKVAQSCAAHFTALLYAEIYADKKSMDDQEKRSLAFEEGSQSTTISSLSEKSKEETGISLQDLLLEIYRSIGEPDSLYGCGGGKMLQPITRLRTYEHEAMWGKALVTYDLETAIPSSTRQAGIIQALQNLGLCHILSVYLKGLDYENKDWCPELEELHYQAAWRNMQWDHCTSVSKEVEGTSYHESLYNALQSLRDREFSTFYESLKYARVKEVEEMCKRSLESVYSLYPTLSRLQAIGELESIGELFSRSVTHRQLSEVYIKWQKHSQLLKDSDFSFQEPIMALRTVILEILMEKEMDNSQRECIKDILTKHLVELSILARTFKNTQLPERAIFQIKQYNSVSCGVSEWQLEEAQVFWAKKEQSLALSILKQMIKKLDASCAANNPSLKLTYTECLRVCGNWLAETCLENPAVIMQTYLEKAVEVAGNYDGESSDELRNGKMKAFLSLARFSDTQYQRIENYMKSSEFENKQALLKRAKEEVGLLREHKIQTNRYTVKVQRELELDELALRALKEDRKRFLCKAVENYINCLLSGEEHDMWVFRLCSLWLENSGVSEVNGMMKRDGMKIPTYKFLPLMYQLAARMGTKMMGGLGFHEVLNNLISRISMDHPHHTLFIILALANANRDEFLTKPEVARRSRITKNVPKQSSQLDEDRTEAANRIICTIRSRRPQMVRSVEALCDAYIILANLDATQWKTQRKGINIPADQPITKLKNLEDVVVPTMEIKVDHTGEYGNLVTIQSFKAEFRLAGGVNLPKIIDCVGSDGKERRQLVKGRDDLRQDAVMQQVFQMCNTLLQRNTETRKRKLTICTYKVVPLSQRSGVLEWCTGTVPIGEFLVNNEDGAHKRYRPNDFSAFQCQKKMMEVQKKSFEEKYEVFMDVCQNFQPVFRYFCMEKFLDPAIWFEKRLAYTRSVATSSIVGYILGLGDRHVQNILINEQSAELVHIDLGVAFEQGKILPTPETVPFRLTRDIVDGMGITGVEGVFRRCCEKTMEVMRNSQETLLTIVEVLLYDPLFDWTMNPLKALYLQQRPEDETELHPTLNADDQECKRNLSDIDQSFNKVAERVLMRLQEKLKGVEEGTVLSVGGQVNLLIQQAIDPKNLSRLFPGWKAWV
Procedure, shortened: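 After paraformaldehyde fixation and Triton X-100 permeabilization, immunostained plates were read by infrared scanning (ODYSSEY CLx). Compound was given as 10 doses, 3-fold dilutions from a 1 μM final top concentration.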

Row | Structure (SMILES) | pIC50 [1] | pIC50 [2]
1 | Cc1ccc(S(=O)(=O)Nc2cc(-c3ccc4ncc5c(c4c3)C3(CCC3)C(=O)N5C)cnc2OCCCN2CCCCC2)cn1 [Example 142, 6-Methyl-N-(5-(3 methyl-2′-oxo-2′,3′-dihydrospiro[cyclobulane-1,1′-pyrrolo[2,3-c]quinolin]-8′-yl)-2-(3-(piperidin-1-yl)propoxy)pyridin-3-yl)pyridine-3-sulfonamide hydrochloride] | > 9.30 | 7.00 to 9.00
2 | COc1ccc(S(=O)(=O)Nc2cc(-c3ccc4ncc5c(c4c3)C3(CCC3)C(=O)N5C)cnc2OCCCN(C)C)cc1 [Example 144, N-(2-(3-(Dimethylamino)propoxy)-5-(3′-methyl-2′-oxo-2′,3′-dihydrospiro [cyclobutane-1,1′-pyrrolo[2,3-c]quinolin]-8′-yl)pyridin-3-yl)-4-methoxybenzenesulfonamide hydrochloride] | 7.00 to 9.00 | 7.00 to 9.00
3 | Cc1ccc(S(=O)(=O)Nc2cc(-c3ccc4ncc5c(c4c3)C3(CCC3)C(=O)N5C)cnc2OCCCN(C)C)cc1 [Example 145, N-(2-(3-(Dimethylamino)propoxy)-5-(3′-methyl-2′-oxo-2′,3′-dihydrospiro [cyclobulane-1,1′-pyrrolo[2,3-c]quinolin]-8′-yl)pyridin-3-yl)-4-methylbenzenesulfonamide hydrochloride] | 9.00 to 9.30 | 7.00 to 9.00
4 | CN(C)CCCOc1ncc(-c2ccc3ncc4c(c3c2)C2(CCC2)C(=O)N4C)cc1NS(=O)(=O)c1ccc(C(F)(F)F)nc1 [Example 146, N-(2-(3-(Dimethylamino)propoxy)-5-(3′-methyl-2′-oxo-2′,3′-dihydrospiro [cyclobulane-1,1′-pyrrolo[2,3-c]quinolin]-8′-yl)pyridin-3-yl)-6-(trifluoromethyl)pyridine-3-sulfonamide hydrochloride] | 7.00 to 9.00 | 7.00 to 9.00
5 | CN(C)CCCOc1ncc(-c2ccc3ncc4c(c3c2)C2(CCC2)C(=O)N4C)cc1NS(=O)(=O)c1ccc(C#N)nc1 [Example 147, 6-Cyano-N-(2-(3-(dimethylamino)propoxy)-5-(3′-methyl-2′-oxo-2′,3′-dihydrospiro[cyclobulane-1,1′-pyrrolo[2,3-c]quinolin]-8′-yl)pyridin-3-ylpyridine-3-sulfonamide hydrochloride] | 9.00 to 9.30 | 7.00 to 9.00
6 | CN(C)CCCOc1ncc(-c2ccc3ncc4c(c3c2)C2(CCC2)C(=O)N4C)cc1NS(=O)(=O)c1ccccn1 [Example 148, N-(2-(3-(Dimethylamino)propoxy)-5-(3′-methyl-2-oxo-2′,3′-dihydrospiro[cyclobulane-1,1′-pyrrolo[2,3-c]quinolin]-8′-yl)pyridin-3-yl)pyridine-2-sulfonamide hydrochloride] | 7.00 to 9.00 | 7.00 to 9.00
7 | CN(C)CCCOc1ncc(-c2ccc3ncc4c(c3c2)C2(CCC2)C(=O)N4C)cc1NS(=O)(=O)N(C)C [Example 149, 8′-{6-[3-(Dimethylamino)propoxy]-5-[(dimethylsulfamoyl)amino]pyridine-3-yl}-3′-methyl-2′,3′-dihydrospiro[cyclobutane-1,1′-pyrrolo[2,3-c]quinoline]-2′-one hydrochloride] | 9.00 to 9.30 | > 9.30
8 | CN(C)CCCOc1ncc(-c2ccc3ncc4c(c3c2)C2(CCC2)C(=O)N4C)cc1NS(=O)(=O)c1cccc(C(F)(F)F)c1 [Example 150, N-(2-(3-(Dimethylamino)propoxy)-5-(3′-methyl-2′-oxo-2′,3′-dihydrospiro[cyclobutane-1,1′-pyrrolo[2,3-c]quinolin]-8′-yl)pyridin-3-yl)-3-(trifluoromethyl)benzenesulfonamide] | 7.00 to 9.00 | 7.00 to 9.00
9 | CN(C)CCCOc1ncc(-c2ccc3ncc4c(c3c2)C2(CCC2)C(=O)N4C)cc1NS(=O)(=O)c1cc(F)cc(F)c1 [Example 153, N-(2-(3-(Dimethylamino)propoxy)-5-(3′-methyl-2′-oxo-23′-dihydrospiro[cyclobutane-1,1′-pyrrolo[2,3-c]quinolin]-8′-yl)pyridin-3-yl)-3,5-difluorobenzenesulfonamide] | 9.00 to 9.30 | 7.00 to 9.00
10 | CN(C)CCCOc1ncc(-c2ccc3ncc4c(c3c2)C2(CCC2)C(=O)N4C)cc1NS(=O)(=O)c1cc(Cl)cc(C(F)(F)F)c1 [Example 154, 3-Chloro-N-(2-(3-(dimethylamino)propoxy)-5-(3′-methyl-2′-oxo-2′,3′-dihydrospiro[cyclobutane-1,1′-pyrrolo[2,3-c]quinolin]-8′-yl)pyridin-3-yl)-5-(trifluoromethyl)benzenesulfonamide hydrochloride] | 7.00 to 9.00 | 7.00 to 9.00
11 | CN1C(=O)C2(CCC2)c2c1cnc1ccc(-c3cnc(N4CCC(N5CCCCC5)CC4)c(NS(=O)(=O)c4ccccc4)c3)cc21 [Example 155, N-(2-([1,4′-Bipiperidin]-1′-yl)-5-(3′-methyl-2′-oxo-2′,3′-dihydrospiro[cyclobulane-1,1′-pyrrolo[2,3-c]quinolin]-8′-yl)pyridin-3-yl)benzenesulfonamide hydrochloride] | 9.00 to 9.30 | 7.00 to 9.00
12 | CN(C)CCCOc1ncc(-c2ccc3ncc4c(c3c2)C2(CCC2)C(=O)N4C)cc1NS(=O)(=O)c1cc(F)cc(C(F)(F)F)c1 [Example 156, N-(2-(3-(Dimethylamino)propoxy)-5-(3′-methyl-2′-oxo-2′,3′-dihydrospiro[cyclobulane-1,1′-pyrrolo[2,3-c]quinolin]-8′-yl)pyridin-3-yl)-3-fluoro-5-(trifluoromethyl)benzenesulfonamide hydrochloride] | 7.00 to 9.00 | 7.00 to 9.00
13 | CN(C)CCCOc1ncc(-c2ccc3ncc4c(c3c2)C2(CCC2)C(=O)N4C)cc1NS(=O)(=O)c1cc(Cl)cc(Cl)c1 [Example 157, 3,5-Dichloro-N-(2-(3-(dimethylamino)propoxy)-5-(3′-methyl-2′-oxo-2′,3′-dihydrospiro [cyclobutane-1,1′-pyrrolo[2,3-c]quinolin]-8′-yl)pyridin-3-yl) benzenesulfonamide hydrochloride] | 7.00 to 9.00 | 7.00 to 9.00
14 | CN(C)CCCOc1ncc(-c2ccc3ncc4c(c3c2)C2(CCC2)C(=O)N4C)cc1NS(=O)(=O)c1ccc(F)cc1 [Example 158, N-(2-(3-(Dimethylamino)propoxy)-5-(3′-methyl-2-oxo-2′,3′-dihydrospiro[cyclobulane-1,1′-pyrrolo[2,3-c]quinolin]-8′-yl)pyridin-3-yl)-4-fluorobenzenesulfonamide hydrochloride] | 9.00 to 9.30 | 9.00 to 9.30
15 | CN(C)CCCOc1ncc(-c2ccc3ncc4c(c3c2)C2(CCC2)C(=O)N4C)cc1NS(=O)(=O)c1ccc(F)c(C#N)c1 [Example 159, 3-Cyano-N-(2-(3-(dimethylamino)propoxy)-5-(3′-methyl-2′-oxo-2′,3′-dihydrospiro [cyclobutane-1,1′-pyrrolo[2,3-c]quinolin]-8′-yl)pyridin-3-yl)-4-fluorobenzene-sulfonamide hydrochloride] | 9.00 to 9.30 | 9.00 to 9.30
16 | CN(C)CCCOc1ncc(-c2ccc3ncc4c(c3c2)C2(CCC2)C(=O)N4C)cc1NS(=O)(=O)c1cscn1 [Example 160, N-(2-(3-(Dimethylamino)propoxy)-5-(3′-methyl-2′-oxo-2′,3′-dihydrospiro[cyclobutane-1,1′-pyrrolo[2,3-c]quinolin]-8′-yl)pyridin-3-yl)thiazole-4-sulfonamide hydrochloride] | > 9.30 | 7.00 to 9.00
17 | CN(C)CCCOc1ncc(-c2ccc3ncc4c(c3c2)C2(CCC2)C(=O)N4C)cc1NS(=O)(=O)N1CCN(C)CC1 [Example 162, N-(2-(3-(Dimethylamino)propoxy)-5-(3′-methyl-2′-oxo-2′,3′-dihydrospiro[cyclobutane-1,1′-pyrrolo[2,3-c]quinolin]-8′-yl)pyridin-3-yl)-4-methylpiperazine-1-sulfonamide hydrochloride] | 9.00 to 9.30 | 7.00 to 9.00
18 | CCN(C)S(=O)(=O)Nc1cc(-c2ccc3ncc4c(c3c2)C2(CCC2)C(=O)N4C)cnc1OCCCN(C)C [Example 163, 8′-{6-[3-(Dimethylamino)propoxy]5-{[ethyl(methyl)sulfamoyl]amino}pyridin-3-yl}-3′-Methyl-2′,3′-dihydrospiro[cyclobutane-1,1′-pyrrolo[2,3-c]quinoline]-2′-one] | 9.00 to 9.30 | 7.00 to 9.00
19 | CN(C)CCCOc1ncc(-c2ccc3ncc4c(c3c2)C2(CCC2)C(=O)N4C)cc1NS(=O)(=O)N1CCC1 [Example 164, N-(2-(3-(Dimethylamino)propoxy)-5-(3′-methyl-2′-oxo-2′,3′-dihydrospiro[cyclobutane-1,1′-pyrrolo[2,3-c]quinolin]-8′-yl)pyridin-3-yl)azetidine-1-sulfonamide] | > 9.30 | 7.00 to 9.00
20 | CC1CCN(S(=O)(=O)Nc2cc(-c3ccc4ncc5c(c4c3)C3(CCC3)C(=O)N5C)cnc2OCCCN(C)C)CC1 [Example 165, N-(2-(3-(Dimethylamino)propoxy)-5-(3′-methyl-2′-oxo-2′,3′-dihydrospiro[cyclobutane-1,1′-pyrrolo[2,3-c]quinolin]-8′-yl)pyridin-3-yl)-4-methylpiperidine-1-sulfonamide] | 7.00 to 9.00 | 7.00 to 9.00
21 | CN(C)CCCOc1ncc(-c2ccc3ncc4c(c3c2)C2(CCC2)C(=O)N4C)cc1NS(=O)(=O)c1cnn(C)c1 [Example 166, N-(2-(3-(Dimethylamino)propoxy)-5-(3′-methyl-2′-oxo-2′,3′-dihydrospiro [cyclobutane-1,1′-pyrrolo [2,3-c]quinolin]-8′-yl)pyridin-3-yl)-1-methyl-1H-pyrazole-4-sulfonamide hydrochloride] | 7.00 to 9.00 | 7.00 to 9.00
